The target in one series is T1, OGA (Homo sapiens, UniProt O60502).
T1 construct: HEK293 cells inducible for P301L mutant human Tau (isoform 2N4R) were established at Janssen; endogenous in cells; host or cells: HEK293 cells inducible for P301L mutant human Tau (2N4R)
T1 sequence (O60502 1-916): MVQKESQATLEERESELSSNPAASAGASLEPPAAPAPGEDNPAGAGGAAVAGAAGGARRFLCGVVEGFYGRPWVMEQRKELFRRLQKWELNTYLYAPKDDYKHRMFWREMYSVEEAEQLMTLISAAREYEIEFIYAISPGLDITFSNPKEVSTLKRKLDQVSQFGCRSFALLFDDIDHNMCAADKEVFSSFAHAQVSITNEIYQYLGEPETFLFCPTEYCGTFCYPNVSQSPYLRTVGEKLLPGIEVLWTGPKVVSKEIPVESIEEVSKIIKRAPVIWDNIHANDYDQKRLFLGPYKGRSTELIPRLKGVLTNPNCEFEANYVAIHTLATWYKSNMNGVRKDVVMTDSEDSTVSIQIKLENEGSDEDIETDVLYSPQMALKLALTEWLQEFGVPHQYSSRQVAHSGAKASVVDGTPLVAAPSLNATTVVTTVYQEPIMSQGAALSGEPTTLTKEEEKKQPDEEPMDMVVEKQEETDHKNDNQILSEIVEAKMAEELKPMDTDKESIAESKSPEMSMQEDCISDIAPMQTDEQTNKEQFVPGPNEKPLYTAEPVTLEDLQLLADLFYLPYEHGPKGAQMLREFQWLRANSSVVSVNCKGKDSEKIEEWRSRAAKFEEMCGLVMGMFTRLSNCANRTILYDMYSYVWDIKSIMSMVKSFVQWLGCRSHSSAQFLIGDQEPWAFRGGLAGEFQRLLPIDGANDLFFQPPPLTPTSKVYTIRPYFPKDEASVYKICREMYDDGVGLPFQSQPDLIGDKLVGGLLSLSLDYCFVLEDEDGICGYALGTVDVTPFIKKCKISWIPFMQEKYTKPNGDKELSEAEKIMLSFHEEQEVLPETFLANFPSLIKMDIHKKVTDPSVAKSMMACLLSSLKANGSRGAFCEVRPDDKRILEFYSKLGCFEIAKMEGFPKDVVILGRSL
Briefly: OGA cellular assay: immunocytochemical detection of O-GlcNAcylated proteins in HEK293 cells inducible for P301L mutant human Tau. Type of series: cell-based. The note with it: for Emax: HEK293, read-out: Cellular Emax (%). The text has this:
HEK293 cells inducible for P301L mutant human Tau (isoform 2N4R) were established at Janssen. Thiamet-G was used for both plate validation (high control) and as reference compound (reference EC50 assay validation). […] Inhibition of OGA will result in an increase of O-GlcNAcylated protein levels resulting in an increased signal in the experiment. […] ICC pictures are imaged with a Perkin Elmer Opera Phenix plate microscope and quantified with the provided software Perkin Elmer Harmony 4.1.
Cells were propagated in DMEM high Glucose (Sigma, # D5796) following standard procedures. […] At the day of compound test medium from assay plates was removed and replenished with 90 μl of fresh Assay Medium. 10 μl of compounds at a 10 fold final concentration were added to the wells. Plates were centrifuged shortly before incubation in the cell incubator for 6 hours. DMSO concentration was set to 0.2%. Medium is discarded by applying vacuum. For staining of cells medium was removed and cells washed once with 100 μl D-PBS (Sigma, # D8537). From next step onwards unless other stated assay volume was always 50 μl and incubation was performed without agitation and at room temperature. […] Before analysis samples were washed 2 times manually for 5 minutes in ICC base buffer.
Imaging is performed using Perkin Elmer Phenix Opera using a water 20× objective and recording 9 fields per well. Intensity readout at 488 nm is used as a measure of O-GlcNAcylation level of total proteins in wells. To assess potential toxicity of compounds nuclei were counted using the Hoechst staining. IC50-values are calculated using parametric non-linear regression model fitting. As a maximum inhibition Thiamet G at a 200 uM concentration is present on each plate. In addition, a concentration response of Thiamet G is calculated on each plate.

In series [1] the target is T2, recombinant human Meningioma Expressed Antigen 5 (MGEA5), also referred to as O-GlcNAcase (OGA) (Homo sapiens, UniProt O60502).
T2 construct: Full length OGA enzyme was purchased at OriGene (cat # TP322411); purchased OriGene TP322411
T2 sequence (O60502 1-916): T1 sequence (O60502 1-916)
Briefly: OGA biochemical assay: inhibition of FM-GlcNAc hydrolysis, fluorescence; protocol A (10 nM OGA, 1 h) or protocol B (2 nM OGA, 6 h). The note with it: for IC50: read-out: Enzymatic hOGA, pIC50 (converted).

The mark [2] stands for this setting: Enzymatic protocol B (2 nM OGA, 6 h).
Where [3] appears, read: Enzymatic protocol A (10 nM OGA, 1 h).

Read-outs that look alike come from different tables or passages of the source. A value given as a limit tells only on which side of the number the result lay.

As a reminder, the EC50 is the concentration that produces a half-maximal response. Usually Emax stands for the greatest response seen or fitted, relative to the assay's reference. Usually melting point stands for the temperature of the solid-liquid transition. For the compound `CC(=O)Nc1ncc(CN2CCC(Cc3cnc4cc[nH]c4c3)C2)s1` (stereo not drawn) [Product 68], the melting point turned out to be 190.79 °C. Moreover, at OGA, the EC50 is 41.7 nM and the maximal response (Emax) was found to be 91.2%. Further, in series [1] (setting [2]), the Emax stood at 101% and the IC50 was 5.37 nM.
Turning to `CC(=O)Nc1ncc(S(=O)(=O)N2CCO[C@H](c3ccnc4ncnn34)C2)s1` [Product 32], the melting point is 260.51 °C. In addition, on OGA, the half-maximal effective concentration (EC50) was over 10000 nM and the Emax came out at 21.8%. Besides, in series [1] (setting [3]), the Emax is 102% and the IC50 was 14.5 nM.
The matching figures for `CC(=O)Nc1ncc(CN2CCC[C@@H](c3cc(C(F)F)n4ncnc4n3)C2)s1` [Product 25]: 182.53 °C, 457 nM, 113%, 103% and 13.5 nM.
The matching figures for `CC(=O)Nc1ncc(S(=O)(=O)N2CCO[C@@H](c3ccnc4ncnn34)C2)s1` [Product 31]: 263.16 °C, over 10000 nM, 11.1%, 103% and 15.8 nM.
For `CC(=O)Nc1ncc(S(=O)(=O)N2CCOC(c3cc(C(F)F)nc4ncnn34)C2)s1` (stereo not drawn) [Product 33], the melting point came to 264.85 °C. Also, on OGA, the EC50 was over 10000 nM and the maximal effect (Emax) turned out to be 15.7%. Besides, in series [1] (setting [3]), the maximal response (Emax) amounted to 101% and the IC50 was 6.46 nM.
The compound `CC(=O)Nc1ncc(S(=O)(=O)N2CCOC(c3cc(C(F)(F)F)nc4ncnn34)C2)s1` (stereo not drawn) [Product 27] gave a melting point of 255.12 °C. Besides, at OGA, the EC50 was over 10000 nM and the Emax came to 19.5%. For the same compound, in series [1] (setting [3]), the maximum response (Emax) is 100% and the IC50 was 17 nM.
The compound `CC(=O)Nc1ncc(CN2CCCC(c3cc(C(F)F)n4ccnc4n3)C2)s1` (racemic) [Product 24] returned a melting point of 232.44 °C. For the same compound, at OGA, a half-maximal effect (EC50) was put at 479 nM and the Emax came to 109%. In series [1] (setting [3]), the maximum response (Emax) turned out to be 102% and the IC50 is 31.6 nM.
In the case of `CC(=O)Nc1ncc(CN2CCCC(c3cc(C(F)F)nc4ncnn34)C2)s1` (racemic) [Product 13], the melting point is 186.01 °C. On OGA, the midpoint of the response, the EC50, lay at 35.5 nM and the Emax is 130%. Further, in series [1] (setting [3]), the maximum response (Emax) stood at 101% and the IC50 was 8.51 nM.
On to `CC(=O)Nc1ncc(S(=O)(=O)N2CCCC(c3cc(C(F)F)nc4ncnn34)C2)s1` (racemic) [Product 6], for which the melting point was 266.14 °C. Moreover, on OGA, the 50% effective concentration (EC50) was over 10000 nM and the Emax is 39.4%. In series [1] (setting [3]), the maximal effect (Emax) stood at 101% and the IC50 is 9.33 nM.
`CC(=O)Nc1ncc(S(=O)(=O)N2CCOC(c3cc(C)nc4ncnn34)C2)s1` (racemic) [Product 28] had a melting point of 290.78 °C. Further, on OGA, the 50% effective concentration (EC50) was over 10000 nM and the Emax came out at 22%. Also, in series [1] (setting [3]), the maximum response (Emax) worked out at 103% and the IC50 was 9.12 nM. In series [1] (setting [2]), the maximum response (Emax) stood at 101% and the IC50 is 8.51 nM.
Compound `CC(=O)Nc1ncc(CN2CCCC(c3cc(C(F)F)nc4nccn34)C2)s1` (stereo not drawn) [Product 14] gave a melting point of 226.06 °C. In addition, at OGA, it took 70.8 nM to reach a half-maximal effect (EC50) and the Emax worked out at 108%. Further, in series [1] (setting [3]), the Emax is 102% and the IC50 is 8.71 nM.
Regarding `CC(=O)Nc1ncc(S(=O)(=O)N2CCOC(c3cc(C(F)F)n4ncnc4n3)C2)s1` (stereo not drawn) [Product 38], the melting point was 229.94 °C. For the same compound, in series [1] (setting [3]), the Emax came to 101% and the IC50 is 468 nM.
Compound `Cc1cc([C@H]2CN([C@H](C)c3ccc4c(c3)OCO4)CCN2)n2ncnc2n1` [Product 56] gave a melting point of 199.25 °C. Moreover, in series [1] (setting [2]), the Emax came to 25.8% and the IC50 is over 10000 nM.
The corresponding values for `CC(=O)Nc1ncc(CN2CCC[C@@H](c3ccnc4ncnn34)C2)s1` [Product 65] are 236.16 °C, 99.2% and 123 nM.
The compound `CC(=O)Nc1ncc(S(=O)(=O)N2CCNC(c3cc(C(F)F)nc4ncnn34)C2)s1` (stereo not drawn) [Product 41] showed a melting point of 227.97 °C. On OGA, the EC50 is over 10000 nM and the Emax turned out to be 10.5%. In addition, in series [1] (setting [3]), the Emax came out at 102% and the IC50 is 6.17 nM.
`CC(=O)Nc1ncc(CN2CCCC(c3cc4cc[nH]c4nc3C)C2)s1` (racemic) [Product 74] returned a melting point of 276.23 °C. For the same compound, at OGA, the half-maximal effective concentration (EC50) was 13.5 nM and the maximal effect (Emax) worked out at 102%. Also, in series [1] (setting [3]), the maximum response (Emax) came out at 101% and the IC50 is 6.31 nM.
With `CC(=O)Nc1ncc(CN2CCOC(c3cc(C(F)F)nc4ncnn34)C2)s1` (stereo not drawn) [Product 34], the melting point amounted to 260.21 °C. For the same compound, in series [1] (setting [3]), the maximum response (Emax) is 97.4% and the IC50 is 1580 nM.
Regarding `CC(=O)Nc1ncc(CN2CCOC(c3ccnc4ncnn34)C2)s1` (stereo not drawn) [Product 36], the melting point was determined as 251.21 °C. For the same compound, in series [1] (setting [2]), the Emax was 93.6% and the IC50 is 741 nM.
For the compound `CC(=O)Nc1ncc(CN2CCCC(c3cc(C)nc4ncnn34)C2)s1` (racemic) [Product 11], the melting point was 246.95 °C. On OGA, a half-maximal effect (EC50) was put at 27.5 nM and the Emax came out at 113%. In addition, in series [1] (setting [2]), the Emax is 100% and the IC50 is 6.17 nM.
Take `CC(=O)Nc1ncc(CN2CC[C@H](Cc3nccn4c(C)cnc34)C2)s1` [Product 104]: the melting point turned out to be 189.54 °C. Further, at OGA, the midpoint of the response, the EC50, lay at 61.7 nM and the Emax came to 91.5%. In series [1] (setting [2]), the Emax was determined as 100% and the IC50 was 1.48 nM.
`CC(=O)Nc1ncc(CN2CCOC(c3cc(C(F)F)n4ncnc4n3)C2)s1` (stereo not drawn) [Product 39] displayed a melting point of 209.69 °C. Moreover, in series [1] (setting [3]), the maximal response (Emax) is 88.4% and the IC50 was 3470 nM.
As for `CC(=O)Nc1ncc(CN2CCC[C@H](c3ccnc4ncnn34)C2)s1` [Product 9], the melting point came out at 234.6 °C. On OGA, the concentration giving a half-maximal response (EC50) is 38.9 nM and the Emax stood at 109%. In series [1] (setting [3]), the maximum response (Emax) came out at 101% and the IC50 was 11.7 nM.
Consider `CC(=O)Nc1ncc(S(=O)(=O)N2CCC3(CC3)C(c3cc(C(F)F)nc4ncnn34)C2)s1` (stereo not drawn) [Product 63], for which the melting point came to 266.56 °C. Besides, in series [1] (setting [3]), the Emax is 93.8% and the IC50 is 692 nM.
`CC(=O)Nc1ncc(CN2CC[C@H](Cc3cncc4nccn34)C2)s1` [Product 108] gave a melting point of 202.48 °C. At OGA, the EC50 was 97.7 nM and the maximal effect (Emax) came out at 92.7%. For the same compound, in series [1] (setting [2]), the Emax came out at 101% and the IC50 was 4.9 nM.

For the origin of these results see patent US20200157092A1, “[1,2,4]-TRIAZOLO [1,5-A]-PYRIMIDINYL DERIVATIVES SUBSTITUTED WITH PIPERIDINE, […] […] OGA INHIBITORS” (priority 2017, published 2020).
